Experimental data from patent publication US20250290045A1, “SMALL MOLECULES AND METHODS FOR MODULATING TEMPORAL CONTROL OF GELATION AND HYDROGEL MECHANICS” (The Board of Trustees of the Leland Stanford Junior …, priority 2022, published 2025).
Several values for one entry are separate records, joined by “and”; a condition that tells them apart may be missing. Identical values can stand only once. Entries after “also recorded” stand apart in the source; their conditions may differ.

Columns and labels:
[1] = Storage modulus of HELP hydrogel with competitor, oscillatory shear rheology; assay type: physicochemical; settings: for HELP modulus: 0 mM control ~3 kPa; for storage modulus (G) of HELP hydrogel, dose response: FIG. 11C, D, increasing competitor concentration, n=3; for fold change in modulus: HELP system, relative to no competitor
Description: The term “storage modulus” as used herein may be used interchangeably with the term “stiffness”. Storage modulus refers to the ratio of the elastic stress to strain and indicates a material's ability to store energy. The storage modulus may be measured using oscillatory shear rheology
The storage modulus of the HELP hydrogels were measured using oscillatory shear rheology.
The HELP hydrogel composition was 1 wt % ELP-Hydrazine (fully modified) and 1 wt % HA-Aldehyde (12% modified). Hydrazinoacetic acid was added to HELP hydrogels in four separate final concentrations, 0 mM, 5 mM, 10 mM and 20 mM and the storage modulus was measured over the course of 30 minutes.
The catalyst agent was 2-(Aminomethyl)benzimidazole and the competitor agent was butyraldehyde. The competitor agent was added at HELP hydrogels at a final concentration of 10 mM and the catalyst agent was added to a final concentration of 0.10 and 25 mM. The composition of the HELP hydrogel was 2 wt % ELP-Hydrazine (fully modified) and 1 wt % HA-Benzaldehyde (30% modified).
To initially assess the impact of a competitor on hydrogel stiffness, it was proposed that the effect on crosslinking density will depend upon the relative strength of the two competing reactions: (1) crosslinking-site and competitor and (2) crosslinking reaction (FIG. 11A). It was predict that as the relative strength of the competitor reaction (Keq^1) to crosslinking reaction (Keq^2) increases, there will be a greater disruption of crosslinks. To validate this, the impact of competitor Keq on the modulus of HELP formed from precursor solutions of HA-BZA and ELP-HYD at a 1:1 BZA to HYD ratio was determined. To minimize off-target reactions, competitors were added to the precursors solution that has the same functionality, i.e., hydrazine competitors added to ELP-HYD, aldehyde competitors added to HA-BZA. At 10 mM of competitor, which represents a ratio of 4:3 of competitor to crosslinking sites, all competitors led to a significant decrease in the HELP modulus compared to the 0 mM control (FIG. 11B). Based upon the hypothesis that the relative strength of the reactions will dictate crosslinking disruption, a larger decrease in modulus with competitors that result in an aromatic hydrazone (Keq^1/Keq^2˜10^0), double aromatic hydrazone (Keq^1/Keq^2˜10^1) and alkyl hydrazone (Keq^1/Keq^2˜10^2) should be seen.
The hydrogel modulus response to increasing concentrations of competitors was next examined. The decrease in modulus is dependent upon the concentration of the competitor. To examine this dose-dependent response, the competitors with the lowest (HydAA, aromatic hydrazone) and highest (Butanal, alkyl hydrazone) Keq were selected. Increasing the concentration of HydAA from 5, 10, and 20 mM further reduced the crosslinking density and modulus (2.3, 1.8, 1.3 kPa) in a concentration dependent manner (FIG. 11C). A similar response with Butanal was seen as we increase the concentration from 5 to 10 mM (FIG. 11D).

[2] = Hydrazone reaction rates of competitors with model reactants, UV spectroscopy; assay type: physicochemical; settings: for k1 (forward reaction rate) / k−1 (×10^−4) (reverse reaction rate): 50 μM competitor and 50 μM model reactant (BZA or HydAA), saline solution, 25° C., mean (standard deviation), n = 4; for k1 / k−1: unit not given
Description: To quantify the extent that side groups impact reaction parameters, the forward (k1) and reverse (k−1) reaction rates were measured for each competitor at 50 μM (Table 2). For these reactions, the complementary reactant was chosen to be 50 μM of either benzaldehyde (BZA) or hydrazinoacetic acid (HydAA), because they are the crosslinking functionalities of HELP, and can provide key insight into DCC interactions without the complexity of the full HA and ELP polymers. (Winne, Leibler et al. 2019) The formation of a hydrazone bond was observed via absorbance with UV spectroscopy and converted to a concentration over time. An analytical solution to a second order reaction rate, assuming equal concentrations of reactants, was fit to the concentration as a function of time. (Dirksen, Dirksen et al. 2006, Mckinnon, Domaille et al. 2014)

[3] = Theoretical half-time to equilibrium of the competitor reaction; settings: 10 mM; calculated from kinetic reaction parameters
Description: Using the kinetic reaction parameters, the theoretical half-time (t1/2) to was calculated to reach equilibrium of the competitor reaction at a concentration of 10 mM (FIG. 12C). […] This is consistent with the rationale that Butanal increases the gelation time because it is capable of rapidly reacting with the crosslinking sites, preventing them from participating in gelation. […] Using a simplified half-time model of just the competitor reaction, the user is able to qualitatively capture the measured gelation times of the complex competitor and crosslinking hydrogel system.

[4] = Gelation time of HELP hydrogel with competitor; assay type: physicochemical; settings: for gelation time: 0 mM 42.3±5.5 s; for effect on gelation time of HELP hydrogel: FIG. 12A, B, n=3-4, one-way ANOVA
Description: The HELP hydrogel composition was 2 wt % ELP-Hydrazine (fully modified) and 1 wt % HA-Benzaldehyde (30% modified).
Based upon the observed and predicted effect of the competitor on hydrogel modulus, it was reasoned that transient disruption of crosslinking would alter gelation kinetics. The competitor kinetics delays the time to reach a percolated polymer network in a dose-dependent manner. Addition of a high concentration (20 mM) of a relatively slow reacting competitor Keq competitor (HydAA, k1˜10^−1, Keq˜ 10^3) results in a modest and nonsignificant increase in gelation time (tg=48.3±3.1 s), though it softened the hydrogel modulus from ˜3 kPa to 1.3 kPa. (FIG. 12A). […] The difference in gelation times can be attributed to the difference in forward reaction rate and equilibrium constants of the competitors, which both differ by over 2 orders of magnitude between Butanal and HydAA.

[5] = HELP hydrogel homogeneity by fluorescent dye distribution; assay type: physicochemical; settings: 10 mM competitor vs rapidly gelling HELP without competitor; stiff (~3.5 kPa) HELP
Description: We propose that by using a competitor to increase gelation times, we can overcome the limitations of rapidly gelling hydrazone-crosslinked HELP. We compared the macroscopic structure of a stiff (˜3.5 kPa) HELP formulation with and without Butanal. Without a competitor, the hydrogel rapidly gelled, resulting in a heterogenous hydrogel with nonuniform distribution of polymer. However, addition of 10 mM Butanal allowed for adequate mixing of the polymers and a homogenous hydrogel (FIG. 12E). To quantitatively evaluate the heterogeneity of HELP hydrogels with or without a competitor, we added a fluorescent dye and compared the spatial distribution of the fluorescent signal. […] By using a rapidly reaction competitor to slow down gelation kinetics, we have developed a solution to the challenge of inhomogeneous DCC hydrogels, and produced a uniform HELP hydrogel.

[6] = 10 mM competitor, HA-BZA and ELP-HYD at 1:1 BZA to HYD

SMILES: NCc1nc2ccccc2[nH]1 [2-(Aminomethyl)benzimidazole]
- storage modulus of HELP hydrogels with catalyst and competitor ([1]; FIG. 9, catalyst 0.10 and 25 mM with 10 mM butyraldehyde, 24 hours diffusion into preformed hydrogel, 2 wt % ELP-Hydrazine, 1 wt % HA-Benzaldehyde (30% modified)): reduced in a dose-dependent manner

SMILES: NNCCO [Hydrazinoethanol, 2-hydrazinoethanol]
- k1 (forward reaction rate) [2]: 0.690 (0.301) M^−1 s^−1
- k−1 (×10^−4) (reverse reaction rate) [2]: 1.12 (0.469) ×10^−4 s^−1
- k1 [2]: ~10^−1
- k−1 [2]: ~10^−4

SMILES: O=Cc1ccccc1 [Benzaldehyde, benzaldehyde]
- k1 (forward reaction rate) [2]: 0.276 (0.070) M^−1 s^−1
- k−1 (×10^−4) (reverse reaction rate) [2]: 1.71 (0.280) ×10^−4 s^−1
- theoretical half-time (t1/2) to reach equilibrium of the competitor reaction [3]: 4.23 ± 1.33 min

SMILES: NNCC(=O)O [Hydrazinoacetic acid, hydrazinoacetic acid]
- k1 (forward reaction rate) [2]: 0.276 (0.070) M^−1 s^−1
- k−1 (×10^−4) (reverse reaction rate) [2]: 1.71 (0.280) ×10^−4 s^−1
- k1 [2]: ~10^−1
- k−1 [2]: ~10^−4
- HELP modulus ([1]; 5 mM competitor): 2.3 kPa
- HELP modulus ([1]; 10 mM competitor, HA-BZA and ELP-HYD at 1:1 BZA to HYD, listed as HydAA): 1.75±0.3 kPa and 1.8 kPa and 1.75 kPa
- HELP modulus ([1]; 20 mM competitor): 1.3 kPa
- storage modulus of HELP hydrogels, dose response ([1]; FIG. 2, 0, 5, 10 and 20 mM): reduced the storage modulus in a dose dependent manner
- time to reach the plateau storage modulus ([1]; FIG. 3, 1 wt % ELP-Hydrazine, 1 wt % HA-Aldehyde (12% modified), 0, 5, 10, 20 mM): increased the time to reach the plateau storage modulus
- storage modulus of HELP hydrogels over time ([1]; FIG. 3, 1 wt % ELP-Hydrazine, 1 wt % HA-Aldehyde (12% modified), 0, 5, 10, 20 mM, 30 minutes): reduced the storage modulus of HELP hydrogels in a dose dependent manner
- storage modulus (G) of HELP hydrogel, dose response [1]: dose-dependent decrease
- fold change in modulus [1]: 0.6 fold
- gelation time ([4]; 10 mM competitor): did not significantly impact gelation
- gelation time (tg) ([4]; 20 mM HydAA (slow-reacting competitor)): 48.3 ± 3.1 s
- gelation time, dose response ([4]; FIG. 4, 0, 5, 10 mM, 2 wt % ELP-Hydrazine, 1 wt % HA-Benzaldehyde (30% modified)): increased the gelation time in a dose dependent manner
- increase of gelation time ([4]; FIG. 4, 10 mM, 2 wt % ELP-Hydrazine, 1 wt % HA-Benzaldehyde (30% modified)): approximately 30 seconds
- effect on gelation time of HELP hydrogel [4]: does not significantly increase
- theoretical half-time (t1/2) to reach equilibrium of the competitor reaction [3]: 4.23 ± 1.33 min

SMILES: NNc1ccc(C(=O)O)cc1 [Hydrazinobenzoic acid, 4-hydrazinobenzoic acid]
- k1 (forward reaction rate) [2]: 2.10 (0.40) M^−1 s^−1
- k−1 (×10^−4) (reverse reaction rate) [2]: 1.00 (0.077) ×10^−4 s^−1
- k1 [2]: 2.10±0.400
- k−1 [2]: 1.00±0.077×10^−4
- HELP modulus [1, 6]: 0.86±0.04 kPa

SMILES: CCCC=O [Butyraldehyde, butyraldehyde]
- k1 (forward reaction rate) [2]: 59.9 (5.49) M^−1 s^−1
- k−1 (×10^−4) (reverse reaction rate) [2]: 4.49 (1.07) ×10^−4 s^−1
- k−1 [2]: 4.49±1.07×10^−4
- k1 ([2]; listed as Butanal): 59.9±5.49
- k1 ([2]; listed as Butunal): ~10^1
- HELP modulus ([1]; 5 mM competitor): 1.75 kPa
- HELP modulus [1, 6]: 0.29±0.2 kPa
- HELP hydrogel formation ([1]; 20 mM competitor (2.7× crosslinking sites), listed as Butanal): disrupt formation of a hydrogel; also recorded: inhibition of HELP gel formation
- storage modulus (G) of HELP hydrogel, dose response [1]: dose-dependent decrease
- fold change in modulus [1]: 0.1 fold
- increase of gelation time ([4]; 5 mM competitor): ~1.7 fold
- gelation time ([4]; 5 mM competitor): 74.8 ± 10.0 s
- gelation time ([4]; 10 mM competitor): 92.3 ± 5.1 s
- effect on gelation time of HELP hydrogel [4]: significantly increases gelation time in a dose-dependent manner
- theoretical half-time (t1/2) to reach equilibrium of the competitor reaction [3]: 0.0265 ± 0.00233 min
- variance of fluorescence intensity (hydrogel heterogeneity) [5]: significantly lower variance
